As usually defined, the viability is a read-out of living cells in per cent, often relative to untreated cells. Usually inhibition stands for the drop in the measured response relative to a control, in per cent.

Here are results for one compound from patent US20240245677A1, “SELECTED COMPOUNDS FOR TARGETED DEGRADATION OF BRD9” (C4 THERAPEUTICS, INC., priority 2021, published 2024).

The nature of data set [1]: HepG2 in vitro viability assay (CellTiter-Glo, 72 hours). It is filed as cell-based, human. The conditions noted are these: human, HepG2 cells, 72-hour treatment. The protocol: (§1) This assay assessed the general cytotoxicity of Compound 1 using the human hepatocarcinoma cell line HepG2. HepG2 cells were treated with Compound 1 for 72 hours and cellular viability was measured following the addition of CellTiter-Glo® 2.0 reagent (Promega) according to manufacturer's instructions. Agents were solubilized in DMSO and tested in the HepG2 cell line at concentrations ranging from 0.3 nM to 10 μM.
(§2) HepG2 cells were obtained from ATCC (Catalog No. HB-8065, Manassas, VA, USA) and maintained in MEM medium (Catalog No. 11095080, ThermoFisher Scientific, Waltham, MA, USA) supplemented with 10% heat inactivated fetal bovine serum (FBS) (Catalog No. 16000-044, Gibco, Grand Island, NY, USA) at 37° C. in an atmosphere of 5% CO2 in air. The cells were routinely sub-cultured to maintain cell density between 3×10^5-1.5×10^6 cells/mL, not to exceed 20 passages. Cells were washed with PBS, trypsinized for 5 min at 37° C., and resuspended in growth media. An aliquot was diluted 2× with Trypan Blue solution 0.4% (Catalog No. 15250061, ThermoFisher Scientific, Waltham, MA, USA) and cell count was determined. Cell concentration was adjusted with growth media to 1.0×10^4 cells/mL.
(§3) Compound 1 was prepared by dissolving neat compound in DMSO (Catalog No. D8418, Sigma-Aldrich, Inc., St. Louis, MO, USA) to generate 10 mM stock solution and stored at −20° C. 10 mM DMSO stock solution of Compound 1 was serially diluted (half log) in DMSO to generate 10-point dose series ([…]) in acoustic ready 384-well low dead volume microplates (Catalog No. LP-0200, Beckman Coulter Life Sciences, Indianapolis, IN, USA). Using an Echo 550 Acoustic Liquid Handler Handler (Beckman Coulter Life Sciences, Indianapolis, IN, USA), 50 nL of serially diluted compound solutions were dispensed directly in quadruplicate to each 384-well black TC-treated microplate (Catalog No. 3571, Corning, Glendale, CA, USA). 50 nL DMSO was transferred to all control wells.
(§4) 50 μL HepG2 cells suspended in growth media at 1.0×10^4 cells/mL (500 cells/well) were dispensed using a Multidrop Combi Reagent Dispenser (Catalog No. 5840300, ThermoFisher Scientific, Waltham, MA, USA) to each well of 384-well black TC-treated microplates containing quadruplicate concentration range of test compound and DMSO controls. Plates were incubated at 37° C., 5% CO2 for 72 hours. Final concentration of DMSO was 0.1% for all samples.
(§5) Additional cell plates (TO plates) were prepared by dispensing cells into a blank 384-well black TC-treated microplate to represent cytostatic controls and processed for viability detection immediately after cell dispensing.
(§6) HepG2 cell viability was determined based on quantification of ATP using CellTiter-Glo® 2.0 luminescent assay kit (Catalog No. G9243, Promega, Madison, WI, USA), which signals the presence of metabolically active cells. On Day 0 (Time 0) and Day 3 (72 hours) 25 μL CellTiter-Glo® reagent was added to each well of cell plates except the wells in column 24 and the luminescence was measured after 4 hours incubation at room temperature using an EnVision® Multilabel Reader (Catalog No. 2104-0010, Perkin Elmer Inc., Dumfries, VA, USA). Column 24 (cells without CellTiter-Glo® addition) was used as plate background or positive control (P).
(§7) Cytostatic control value (CT0) was computed from TO plate read using untreated cell signals (UT=0) and positive control signals (PT=0) as below.
(§8) Percent response of compound-treated samples at a time point T were calculated by normalizing the signal with P and DMSO treated negative (N) controls on the same microtiter plate and the CT0 control:
(§9) The Response % is thus 100% if the CellTiter-Glo® signal equals that of the DMSO treated controls (i.e., normal cell growth), 0% if it equals that of untreated cell at TO (i.e., cytostasis), and −100% if it equals the no CellTiter-Glo® reagent controls (i.e., complete cytotoxicity). […]
(ATP-based viability assays read luminescence as a measure of living cells.)

For the next data set, the system named is HepG2 cells. Described as above. In kind it is cell-based, human. The note with it: 72 hours. As for the experimental part: as §1, §2, §3, §4, §5, §6, §7, §8, §9

`COc1cc(-c2cn(C)c(=O)c(C)c2C)cc(OC)c1CN1CC[C@H](N2CCN(c3ccc(N[C@H]4CCC(=O)NC4=O)cc3F)CC2)C(F)(F)C1` [Compound 1, (S)-3-((4-(4-((S)-1-(2,6-dimethoxy-4-(1,4,5-trimethyl-6-oxo-1,6-dihydropyridin-3-yl)benzyl)-3,3-difluoropiperidin-4-yl)piperazin-1-yl)-3-fluorophenyl)amino)-piperidine-2,6-dione]: in data set [1] (0.32 nM), the viability at 72 h, 0.00032 µM is 111%. Further, the viability at 72 h, 0.00101 µM in data set [1] (1.01 nM) was 102%. In addition, in data set [1] (3.17 nM), the viability at 72 h, 0.00317 µM came out at 97.7%. Moreover, the viability at 72 h, 0.01 µM in data set [1] (10.0 nM) turned out to be 91.6%. In data set [1] (31.7 nM), the viability at 72 h, 0.0317 µM stood at 97.4%. In addition, the viability at 72 h, 0.1 µM in data set [1] (100 nM) was 92.5%. In data set [1] (317 nM), the viability at 72 h, 0.317 µM was 102%. For the same compound, the viability at 72 h, 1 µM in data set [1] (1000 nM) stood at 79%. The viability at 72 h, 3.161 µM in data set [1] (3161 nM) turned out to be 84.6%. Further, the viability at 72 h, 9.99 µM in data set [1] (9990 nM) turned out to be 66.6%. In addition, the inhibition at 10 µM in the data set on HepG2 cells (Homo sapiens, HepG2, read-out: growth inhibition of HepG2 cells relative to 0.1% DMSO controls, 10 μM) came to 33.4 ± 9.9%. In the data set with HepG2 cells (concentrations up to 3.3 μM), the “effect on viability / growth of HepG2 cells” value is “No significant effect”.
